# According to US20260015358A1, “BICYCLIC DERIVATIVES, COMPOSITIONS AND USES THEREOF” (Danatlas Pharmaceuticals Co., Ltd., priority 2023, published 2026):
# Biological target: WRN [UniPro: Q14191 (WRN_HUMAN), N500-C946] (Homo sapiens (Human), UniProt Q14191)
# Assay: WRN unwinding assay (FORKF DNA, fluorescence)
# Format: biochemical
# Conditions: Table 14
# Procedure: WRN unwinding assay was initiated to evaluate potential inhibitory effect of compounds for WEN helicase activity. WRN [UniPro: Q14191 (WRN_HUMAN), N500-C946] was expressed and purified in insect system and stored at −80° C. in aliquots. […] Compounds dissolved in DMSO (Sigma, D8418) were plated into a 96-well intermediate plate (BioFil, VWP-032-096) for 3-fold serial titration for 10 points using DMSO, and well-to-well transfer the titrated compounds into another 96-well intermediate plate including assay buffer in advance. Shake the 96-well intermediate plate at 600 rpm for 10 min. to fully mix. Specifically, a 3× working mixture of WRN was diluted to a concentration of 60 nM in assay buffer. […] After centrifuging at 1000 rpm and shaking at 500 rpm, the assay plate was pre-incubated for 30 min. Then, […] 3×FORKF DNA and ATP working mixture was dispensed into assay plate. Plate was sealed, centrifuged and incubated for an additional 40 min. at 25° C. […] Each concentration of compound was tested in duplicates in the assay plate. Average fluorescence signal of high control (Wells with 1% DMSO) was calculated as High Control (HC). Average fluorescence signal of low control (Wells with no WRN protein) was calculated as Low control (LC).
# IC50 values were determined by fitting the data to the standard 4 parameters with Hill Slope using GraphPad Prism software.
# Sequence of WRN [UniPro: Q14191 (WRN_HUMAN), N500-C946] (Q14191 500-946): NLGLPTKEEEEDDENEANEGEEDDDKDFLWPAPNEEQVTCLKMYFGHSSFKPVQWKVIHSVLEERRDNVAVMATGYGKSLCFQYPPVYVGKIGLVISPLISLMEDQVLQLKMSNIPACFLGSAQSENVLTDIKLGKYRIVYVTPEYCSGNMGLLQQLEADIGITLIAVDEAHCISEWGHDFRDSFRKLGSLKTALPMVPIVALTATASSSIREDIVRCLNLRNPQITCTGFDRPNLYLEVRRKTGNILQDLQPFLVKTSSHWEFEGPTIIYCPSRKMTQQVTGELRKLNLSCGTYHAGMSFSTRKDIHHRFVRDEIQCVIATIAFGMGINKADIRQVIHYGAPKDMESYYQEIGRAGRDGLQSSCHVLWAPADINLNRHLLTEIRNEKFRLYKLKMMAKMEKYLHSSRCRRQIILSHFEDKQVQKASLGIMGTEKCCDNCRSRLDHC
row,IC50,Structure (SMILES)
1,> 1000 nM,"CCc1c(N2CCN(C(=O)N(C)C)CC2)c(=O)n2nc(C3=CCOCC3)nc2n1CC(=O)Nc1ccc(C(F)(F)F)cc1Cl [Example 10, 4-(4-(2-((2-Chloro-4-(trifluoromethyl)phenyl)amino)-2-oxoethyl)-2-(3,6-dihydro-2H-pyran-4-yl)-5-ethyl-7-oxo-4,7-dihydro-[1,2,4]triazolo[1,5-a]pyrimidin-6-yl)-N,N-dimethylpiperazine-1-carboxamide]"
2,100 to 1000 nM,"CCc1c(N2CCN(C(=O)C(C)O)CC2)c(=O)n2nc(C3=CCOCC3)nc2n1CC(=O)Nc1ccc(C(F)(F)F)cc1Cl (stereo not drawn) [Example 12, N-(2-Chloro-4-(trifluoromethyl)phenyl)-2-(2-(3,6-dihydro-2H-pyran-4-yl)-5-ethyl-6-(4-(2-hydroxypropanoyl)piperazin-1-yl)-7-oxo-[1,2,4]triazolo[1,5-a]pyrimidin-4(7H)-yl)acetamide]"
3,100 to 1000 nM,"CCc1c(N2CCN(C(=O)C3CC3)CC2)c(=O)n2nc(C3=CCOCC3)nc2n1CC(=O)Nc1ccc(C(F)(F)F)cc1Cl [Example 13, N-(2-Chloro-4-(trifluoromethyl)phenyl)-2-(6-(4-(cyclopropanecarbonyl)piperazin-1-yl)-2-(3,6-dihydro-2H-pyran-4-yl)-5-ethyl-7-oxo-[1,2,4]triazolo[1,5-a]pyrimidin-4(7H)-yl)acetamide]"
4,100 to 1000 nM,"CCNC(=O)N1CCN(c2c(CC)n(CC(=O)Nc3ccc(C(F)(F)F)cc3Cl)c3nc(C4=CCOCC4)nn3c2=O)CC1 [Example 15, 4-(4-(2-((2-Chloro-4-(trifluoromethyl)phenyl)amino)-2-oxoethyl)-2-(3,6-dihydro-2H-pyran-4-yl)-5-ethyl-7-oxo-4,7-dihydro-[1,2,4]triazolo[1,5-a]pyrimidin-6-yl)-N-ethylpiperazine-1-carboxamide]"
5,100 to 1000 nM,"CCc1c(N2CCN(C(=O)CCO)CC2)c(=O)n2nc(C3=CCOCC3)nc2n1CC(=O)Nc1ccc(C(F)(F)F)cc1Cl [Example 16, N-(2-Chloro-4-(trifluoromethyl)phenyl)-2-(2-(3,6-dihydro-2H-pyran-4-yl)-5-ethyl-6-(4-(3-hydroxypropanoyl)piperazin-1-yl)-7-oxo-[1,2,4]triazolo[1,5-a]pyrimidin-4(7H)-yl)acetamide]"
6,> 1000 nM,"CCc1c(N2CCN(/C(=N\O)c3ncccc3F)CC2)c(=O)n2nc(C3=CCOCC3)nc2n1CC(=O)Nc1ccc(C(F)(F)F)cc1Cl [Example 21, (Z)—N-(2-Chloro-4-(trifluoromethyl)phenyl)-2-(2-(3,6-dihydro-2H-pyran-4-yl)-5-ethyl-6-(4-((3-fluoropyridin-2-yl) (hydroxyimino)methyl)piperazin-1-yl)-7-oxo-[1,2,4]triazolo[1,5-a]pyrimidin-4(7H)-yl)acetamide]"
7,100 to 1000 nM,"CCc1c(N2CCN(C(=O)NCC3CC3)CC2)c(=O)n2nc(C3=CCOCC3)nc2n1CC(=O)Nc1ccc(C(F)(F)F)cc1Cl [Example 24, 4-(4-(2-((2-Chloro-4-(trifluoromethyl)phenyl)amino)-2-oxoethyl)-2-(3,6-dihydro-2H-pyran-4-yl)-5-ethyl-7-oxo-4,7-dihydro-[1,2,4]triazolo[1,5-a]pyrimidin-6-yl)-N-(cyclopropylmethyl)piperazine-1-carboxamide]"
8,> 1000 nM,"CCc1c(N2CCN(C(=O)Nc3c(C(F)(F)F)ncn3Cc3ccc(OC)cc3)CC2)c(=O)n2nc(C3=CCOCC3)nc2n1CC(=O)Nc1ccc(C(F)(F)F)cc1Cl [Example 26, 4-(4-(2-((2-Chloro-4-(trifluoromethyl)phenyl)amino)-2-oxoethyl)-2-(3,6-dihydro-2H-pyran-4-yl)-5-ethyl-7-oxo-4,7-dihydro-[1,2,4]triazolo[1,5-a]pyrimidin-6-yl)-N-(1-(4-methoxybenzyl)-4-(trifluoromethyl)-1H-imidazol-5-yl)piperazine-1-carboxamide]"
9,100 to 1000 nM,"CCNS(=O)(=O)N1CCN(c2c(CC)n(CC(=O)Nc3ccc(C(F)(F)F)cc3Cl)c3nc(C4=CCOCC4)nn3c2=O)CC1 [Example 33, N-(2-Chloro-4-(trifluoromethyl)phenyl)-2-(2-(3,6-dihydro-2H-pyran-4-yl)-5-ethyl-6-(4-(N-ethylsulfamoyl)piperazin-1-yl)-7-oxo-[1,2,4]triazolo[1,5-a]pyrimidin-4(7H)-yl)acetamide]"
10,100 to 1000 nM,"CCc1c(N2CCN(C(=O)NS(=O)(=O)C3CC3)CC2)c(=O)n2nc(C3=CCOCC3)nc2n1CC(=O)Nc1ccc(C(F)(F)F)cc1Cl [Example 34, 4-(4-(2-((2-Chloro-4-(trifluoromethyl)phenyl)amino)-2-oxoethyl)-2-(3,6-dihydro-2H-pyran-4-yl)-5-ethyl-7-oxo-4,7-dihydro-[1,2,4]triazolo[1,5-a]pyrimidin-6-yl)-N-(cyclopropylsulfonyl)piperazine-1-carboxamide]"
11,100 to 1000 nM,"CCc1c(N2CCN(C(=O)CN)CC2)c(=O)n2nc(C3=CCOCC3)nc2n1CC(=O)Nc1ccc(C(F)(F)F)cc1Cl [Example 38, N-(2-Chloro-4-(trifluoromethyl)phenyl)-2-(2-(3,6-dihydro-2H-pyran-4-yl)-5-ethyl-6-(4-glycylpiperazin-1-yl)-7-oxo-[1,2,4]triazolo[1,5-a]pyrimidin-4(7H)-yl)acetamide]"
12,100 to 1000 nM,"CCc1c(N2CCN(C(=O)CNS(=O)(=O)CC)CC2)c(=O)n2nc(C3=CCOCC3)nc2n1CC(=O)Nc1ccc(C(F)(F)F)cc1Cl [Example 39, N-(2-Chloro-4-(trifluoromethyl)phenyl)-2-(2-(3,6-dihydro-2H-pyran-4-yl)-5-ethyl-6-(4-((ethylsulfonyl)glycyl)piperazin-1-yl)-7-oxo-[1,2,4]triazolo[1,5-a]pyrimidin-4(7H)-yl)acetamide]"
13,> 1000 nM,"CCOC(=O)N1CCN(c2c(CC)n(CC(=O)Nc3ccc(C(F)(F)F)cc3Cl)c3nc(C4=CCOCC4)nn3c2=O)CC1 [Example 40, Ethyl 4-(4-(2-((2-chloro-4-(trifluoromethyl)phenyl)amino)-2-oxoethyl)-2-(3,6-dihydro-2H-pyran-4-yl)-5-ethyl-7-oxo-4,7-dihydro-[1,2,4]triazolo[1,5-a]pyrimidin-6-yl)piperazine-1-carboxylate]"
14,> 1000 nM,"CCc1c(N2CCN(C(=O)c3cn(C)c(=O)n(C)c3=O)CC2)c(=O)n2nc(C3=CCOCC3)nc2n1CC(=O)Nc1ccc(C(F)(F)F)cc1Cl [Example 51, N-(2-Chloro-4-(trifluoromethyl)phenyl)-2-(2-(3,6-dihydro-2H-pyran-4-yl)-6-(4-(1,3-dimethyl-2,4-dioxo-1,2,3,4-tetrahydropyrimidine-5-carbonyl)piperazin-1-yl)-5-ethyl-7-oxo-[1,2,4]triazolo[1,5-a]pyrimidin-4(7H)-yl)acetamide]"
15,> 1000 nM,"CCc1c(N2CCN(C(=O)c3cnc4ncnn4c3O)CC2)c(=O)n2nc(C3=CCOCC3)nc2n1CC(=O)Nc1ccc(C(F)(F)F)cc1Cl [Example 52, N-(2-Chloro-4-(trifluoromethyl)phenyl)-2-(2-(3,6-dihydro-2H-pyran-4-yl)-5-ethyl-6-(4-(7-hydroxy-[1,2,4]triazolo[1,5-a]pyrimidine-6-carbonyl)piperazin-1-yl)-7-oxo-[1,2,4]triazolo[1,5-a]pyrimidin-4(7H)-yl)acetamide]"
